In ChEMBL document CHEMBL1151325, “New xenia diterpenes isolated from the soft coral, xenia florida” (J Nat Prod, 1998):
The source made the active and inactive calls. No cut-off for these calls is given here.

Tests used:
Staphylococcus aureus = experiment: Antibacterial activity against Staphylococcus aureus at 100 ug/disk by paper disk method; type: functional, organism-based
Aeromonas salmonicida = experiment: Antibacterial activity against Aeromonas salmonicida at 100 ug/disk by paper disk method; type: functional, organism-based

SMILES | Activity (Staphylococcus aureus) | Activity (Aeromonas salmonicida)
C=C1CC[C@@H]2O[C@@]2(C)CC[C@@H]2/C(=C\C=C\C(C)C)COC(=O)[C@@H]12 | Active | Active
CC(C)/C=C/C=C1/COC(=O)[C@@H]2[C@@H]1CC[C@@]1(C)C[C@]2(O)CC[C@@H]1O | Active | Active
